According to US11938121B2, “Treatment of infections and biofilm formation using a cellulose synthase inhibitor” (Purdue Research Foundation, priority 2020, dated 2024):

Target: T1, YFP-AtCESA6 (Arabidopsis thaliana, UniProt Q94JQ6)
T1 construct: expressed in transfected cells; host or cells: transgenic Arabidopsis thaliana YFP-AtCESA6 seedlings (total protein extract for DARTS; root epidermal cells for imaging)
T1 sequence (Q94JQ6 1-1084): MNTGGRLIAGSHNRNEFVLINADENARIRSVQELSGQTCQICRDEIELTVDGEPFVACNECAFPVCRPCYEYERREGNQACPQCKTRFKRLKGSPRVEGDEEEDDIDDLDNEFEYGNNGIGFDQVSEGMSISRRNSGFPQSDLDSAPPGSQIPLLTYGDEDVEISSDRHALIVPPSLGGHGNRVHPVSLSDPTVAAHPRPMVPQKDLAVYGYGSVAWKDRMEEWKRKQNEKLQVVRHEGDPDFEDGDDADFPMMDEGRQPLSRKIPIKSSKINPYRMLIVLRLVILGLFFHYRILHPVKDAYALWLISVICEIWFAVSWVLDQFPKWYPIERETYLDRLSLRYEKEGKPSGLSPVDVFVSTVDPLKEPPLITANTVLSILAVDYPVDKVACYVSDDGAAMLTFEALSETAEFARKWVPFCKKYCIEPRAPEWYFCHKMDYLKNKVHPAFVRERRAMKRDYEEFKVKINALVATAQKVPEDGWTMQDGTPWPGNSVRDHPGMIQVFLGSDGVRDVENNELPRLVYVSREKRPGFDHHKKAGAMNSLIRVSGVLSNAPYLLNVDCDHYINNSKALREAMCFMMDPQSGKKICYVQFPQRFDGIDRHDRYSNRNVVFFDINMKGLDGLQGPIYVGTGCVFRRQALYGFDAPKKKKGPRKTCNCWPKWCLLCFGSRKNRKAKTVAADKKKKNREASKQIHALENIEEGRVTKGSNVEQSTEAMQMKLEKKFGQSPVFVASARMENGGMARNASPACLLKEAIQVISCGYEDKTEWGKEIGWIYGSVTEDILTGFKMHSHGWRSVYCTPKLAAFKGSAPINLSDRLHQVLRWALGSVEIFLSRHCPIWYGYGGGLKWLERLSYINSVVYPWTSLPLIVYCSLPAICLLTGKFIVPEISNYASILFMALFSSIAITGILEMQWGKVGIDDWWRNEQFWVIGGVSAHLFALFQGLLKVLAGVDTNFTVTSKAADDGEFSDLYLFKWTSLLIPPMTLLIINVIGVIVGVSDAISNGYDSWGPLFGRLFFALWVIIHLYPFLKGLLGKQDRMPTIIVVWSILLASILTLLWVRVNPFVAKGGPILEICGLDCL
T1 sequence (O48946 1-1081 partner): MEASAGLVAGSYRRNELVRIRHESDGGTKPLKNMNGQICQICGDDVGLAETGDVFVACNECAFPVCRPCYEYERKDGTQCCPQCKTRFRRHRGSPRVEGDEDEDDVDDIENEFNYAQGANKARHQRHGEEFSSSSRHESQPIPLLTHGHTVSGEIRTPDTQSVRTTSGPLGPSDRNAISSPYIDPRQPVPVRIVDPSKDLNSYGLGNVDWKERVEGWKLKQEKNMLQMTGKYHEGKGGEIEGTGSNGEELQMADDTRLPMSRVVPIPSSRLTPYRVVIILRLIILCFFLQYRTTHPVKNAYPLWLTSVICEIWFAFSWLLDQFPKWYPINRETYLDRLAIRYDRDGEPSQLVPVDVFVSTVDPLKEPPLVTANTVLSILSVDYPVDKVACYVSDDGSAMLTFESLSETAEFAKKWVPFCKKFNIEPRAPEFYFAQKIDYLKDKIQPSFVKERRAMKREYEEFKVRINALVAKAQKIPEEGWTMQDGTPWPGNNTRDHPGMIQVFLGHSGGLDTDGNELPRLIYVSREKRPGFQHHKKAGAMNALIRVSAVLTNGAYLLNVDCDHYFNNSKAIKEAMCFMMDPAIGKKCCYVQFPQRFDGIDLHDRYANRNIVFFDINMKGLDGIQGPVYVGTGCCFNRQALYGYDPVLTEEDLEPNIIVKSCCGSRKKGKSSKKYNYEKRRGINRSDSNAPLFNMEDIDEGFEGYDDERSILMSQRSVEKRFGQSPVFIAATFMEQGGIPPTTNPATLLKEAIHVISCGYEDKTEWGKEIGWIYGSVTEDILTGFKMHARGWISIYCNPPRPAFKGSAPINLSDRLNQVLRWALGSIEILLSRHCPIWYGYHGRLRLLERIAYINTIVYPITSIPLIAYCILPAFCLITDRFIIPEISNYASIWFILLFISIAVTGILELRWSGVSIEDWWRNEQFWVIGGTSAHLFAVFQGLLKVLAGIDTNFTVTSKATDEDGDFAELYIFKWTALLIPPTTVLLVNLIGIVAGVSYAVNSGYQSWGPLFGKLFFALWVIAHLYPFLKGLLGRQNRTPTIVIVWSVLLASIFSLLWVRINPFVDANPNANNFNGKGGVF
T1 sequence (Q941L0 1-1065 partner): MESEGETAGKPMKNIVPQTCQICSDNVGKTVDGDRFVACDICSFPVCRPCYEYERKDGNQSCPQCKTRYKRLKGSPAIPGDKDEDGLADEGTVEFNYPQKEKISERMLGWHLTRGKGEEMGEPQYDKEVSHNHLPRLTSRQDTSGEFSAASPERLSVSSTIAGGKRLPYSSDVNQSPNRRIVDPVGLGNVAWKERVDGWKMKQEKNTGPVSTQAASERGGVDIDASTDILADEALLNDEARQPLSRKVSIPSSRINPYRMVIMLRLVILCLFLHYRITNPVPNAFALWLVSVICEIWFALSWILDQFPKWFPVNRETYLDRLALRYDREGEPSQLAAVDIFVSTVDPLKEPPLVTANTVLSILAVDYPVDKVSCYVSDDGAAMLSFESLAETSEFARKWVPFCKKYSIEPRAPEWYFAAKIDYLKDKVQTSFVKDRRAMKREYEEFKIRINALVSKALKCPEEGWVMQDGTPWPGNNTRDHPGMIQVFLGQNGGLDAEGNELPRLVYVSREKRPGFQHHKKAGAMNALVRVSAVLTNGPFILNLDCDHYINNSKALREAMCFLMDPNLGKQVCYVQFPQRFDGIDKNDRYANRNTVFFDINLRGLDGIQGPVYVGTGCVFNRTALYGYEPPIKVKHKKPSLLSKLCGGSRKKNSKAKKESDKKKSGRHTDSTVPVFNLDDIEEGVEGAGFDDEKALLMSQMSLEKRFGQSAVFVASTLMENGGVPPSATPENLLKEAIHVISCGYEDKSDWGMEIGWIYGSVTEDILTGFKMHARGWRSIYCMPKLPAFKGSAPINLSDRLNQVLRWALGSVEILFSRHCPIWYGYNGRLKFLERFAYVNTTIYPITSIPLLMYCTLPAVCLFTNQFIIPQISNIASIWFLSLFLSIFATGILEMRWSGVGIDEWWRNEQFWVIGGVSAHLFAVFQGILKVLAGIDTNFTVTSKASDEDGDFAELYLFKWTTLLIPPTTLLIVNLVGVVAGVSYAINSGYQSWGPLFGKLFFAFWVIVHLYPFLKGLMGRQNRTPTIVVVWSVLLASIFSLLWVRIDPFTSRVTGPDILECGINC
Experiment: DARTS assay
Format: binding
Settings: total protein from YFP-AtCESA6 seedlings, vs DMSO
Procedure: To further validate that ES20-1 targets AtCESA6, we looked for a direct interaction between ES20-1 and AtCESA6. We performed a DARTS (Drug Affinity Responsive Target Stability) assay to test the interaction of ES20-1 with endogenous AtCESA6. We incubated total protein from YFP-AtCESA6 seedlings with either DMSO (as a control) or ES20-1 and digested the mixtures with protease. […] We also purified the central cytosolic domain of AtCESA6 (CESA6c) from E. coli (FIG. 3J) and performed a Microscale thermophoresis (MST) assay to test its interaction with ES20-1. […] We purified AtCESA6 central cytoplasmic domain carrying missense mutation P595S (CESA6c^P595S) and tested its interaction with ES20 and ES20-1 (3O).
To test for an interaction between AtCESA6 and ES20-1 using a DARTS assay, 7-day-old YFP-AtCESA6 light-grown seedlings were harvested and ground to a powder in liquid nitrogen. The ground tissue was homogenized in lysis buffer (50 mM Tris-HCl, pH 7.5, 150 mM NaCl, 0.5% Triton X-100, 2 mM DTT, one tablet/50 mL EDTA free Pierce protease inhibitor [Thermo Fisher]) at 2:1 ratio (2 mL buffer: 1 g tissue). […] The X-ray films were scanned, and the signal intensity of each protein band was quantified after background subtraction using Image J. The relative intensities were quantified by dividing the values in ES20-1-treated samples by the values in DMSO-treated samples.

Question: How did the “interaction with endogenous AtCESA6 (protection from protease)” value turn out when `Cc1ccccc1C(=O)NNC(=S)NC(=O)c1ccccc1` [ES20-1] was run?
Answer: The value was “interacts with endogenous AtCESA6 and protects it from degradation”.
